Data from PMC4882222 (Journal of medicinal chemistry, 2016).
Like-named read-outs stand apart in the source and are kept apart here.

Assays:
[1] = target: HIV RT-associated RNase H (Human immunodeficiency virus type 1 group M subtype B, UniProt P04585); format: biochemical, HIV-1
HIV RT polymerase = HIV RT polymerase (Human immunodeficiency virus type 1 group M subtype B, UniProt P04585); assay: RT polymerase assay; format: biochemical, HIV-1
HIV integrase = HIV integrase (Human immunodeficiency virus type 1 group M subtype B, UniProt P04585); assay: HIV IN strand transfer assay; format: biochemical
[2] = RNH IC50 HTS-2, HTS-2 substrate, measures DNA 3' end directed cleavage
[3] = RNH IC50 HTS-3, HTS-3 substrate, measures RNA 5' end directed cleavage
[4] = RT RNase H IC50, Table 4, data with HTS-1 as substrate

## O=C(O)c1c[nH]cc(O)c1=O [10a, 5-Hydroxy-4-oxo-1,4-dihydropyridine-3-carboxylic acid]
[1]; [2]
  IC50: > 25 µM
[1]; [3]
  IC50: > 25 µM
[1]; [4]
  IC50: > 25 µM
HIV RT polymerase
  IC50: > 25 µM
HIV RT polymerase; Table 1, poly(rA)-oligo(dT)16, [3H]-TTP
  RT Pol IC50: no inhibitory activity
HIV RT polymerase; read-out: RT Pol IC50, Table 4
  IC50: > 25 µM
HIV integrase
  IC50: > 100 µM

## O=C(O)c1cn(-c2ccccc2)cc(O)c1=O [10b, 5-Hydroxy-4-oxo-1-phenyl-1,4-dihydropyridine-3-carboxylic acid]
[1]; [2]
  IC50: > 25 µM
[1]; [3]
  IC50: > 25 µM
[1]; [4]
  IC50: > 25 µM
HIV RT polymerase
  IC50: > 25 µM
HIV RT polymerase; read-out: RT Pol IC50, Table 4
  IC50: > 25 µM

## O=C(O)c1cn(Cc2ccccc2)cc(O)c1=O [10c, 1-Benzyl-5-hydroxy-4-oxo-1,4-dihydropyridine-3-carboxylic acid]
[1]; [2]
  IC50: > 25 µM
[1]; [3]
  IC50: > 25 µM
[1]; [4]
  IC50: > 25 µM
HIV RT polymerase
  IC50: > 25 µM
HIV RT polymerase; read-out: RT Pol IC50, Table 4
  IC50: > 25 µM

## O=C(O)c1cn(Cc2ccc(F)cc2)cc(O)c1=O [10d, 1-(4-Fluorobenzyl)-5-hydroxy-4-oxo-1,4-dihydropyridine-3-carboxylic acid]
[1]; [2]
  IC50: > 25 µM
[1]; [3]
  IC50: > 25 µM
HIV RT polymerase
  IC50: > 25 µM
HIV RT polymerase; read-out: RT Pol IC50, Table 4
  IC50: > 25 µM

## CC(c1ccc(F)cc1)n1cc(O)c(=O)c(C(=O)O)c1 (centres unmarked) [10e, 1-(1-(4-Fluorophenyl)ethyl)-5-hydroxy-4-oxo-1,4-dihydropyridine-3-carboxylic acid]
[1]; [2]
  IC50: > 25 µM
[1]; [3]
  IC50: > 25 µM
HIV RT polymerase
  IC50: > 25 µM
HIV RT polymerase; read-out: RT Pol IC50, Table 4
  IC50: > 25 µM

## Cc1cc(Cn2cc(O)c(=O)c(C(=O)O)c2)ccc1F [10f, 1-(4-Fluoro-3-methylbenzyl)-5-hydroxy-4-oxo-1,4-dihydropyridine-3-carboxylic acid]
[1]; [2]
  IC50: > 25 µM
[1]; [3]
  IC50: > 25 µM
HIV RT polymerase
  IC50: > 25 µM
HIV RT polymerase; read-out: RT Pol IC50, Table 4
  IC50: > 25 µM
HIV integrase
  IC50: > 100 µM

## O=C(O)c1cn(Cc2ccc(F)cc2F)cc(O)c1=O [10g, 1-(2,4-Difluorobenzyl)-5-hydroxy-4-oxo-1,4-dihydropyridine-3-carboxylic acid]
[1]; [2]
  IC50: > 25 µM
[1]; [3]
  IC50: > 25 µM
HIV RT polymerase
  IC50: > 25 µM
HIV RT polymerase; read-out: RT Pol IC50, Table 4
  IC50: > 25 µM
HIV integrase
  IC50: > 100 µM

## O=C(O)c1cn(Cc2ccc(Cl)c(Cl)c2)cc(O)c1=O [10i, 1-(3,4-Dichlorobenzyl)-5-hydroxy-4-oxo-1,4-dihydropyridine-3-carboxylic acid]
[1]; [2]
  IC50: > 25 µM
[1]; [3]
  IC50: > 25 µM
HIV RT polymerase
  IC50: > 25 µM
HIV RT polymerase; read-out: RT Pol IC50, Table 4
  IC50: > 25 µM

## O=C(O)c1cn(Cc2ccc(Cl)cc2Cl)cc(O)c1=O [10j, 1-(2,4-Dichlorobenzyl)-5-hydroxy-4-oxo-1,4-dihydropyridine-3-carboxylic acid]
[1]; [2]
  IC50: > 25 µM
[1]; [3]
  IC50: > 25 µM
HIV RT polymerase
  IC50: > 25 µM
HIV RT polymerase; read-out: RT Pol IC50, Table 4
  IC50: > 25 µM

## O=C(O)c1cn(Cc2ccc(F)c(Cl)c2)cc(O)c1=O [10k, 1-(3-Chloro-4-fluorobenzyl)-5-hydroxy-4-oxo-1,4-dihydropyridine-3-carboxylic acid]
[1]; [2]
  IC50: > 25 µM
[1]; [3]
  IC50: > 25 µM
HIV RT polymerase
  IC50: > 25 µM
HIV RT polymerase; read-out: RT Pol IC50, Table 4
  IC50: > 25 µM

## O=C(O)c1cn(Cc2ccc(Br)cc2)cc(O)c1=O [10l, 1-(4-Bromobenzyl)-5-hydroxy-4-oxo-1,4-dihydropyridine-3-carboxylic acid]
[1]; [2]
  IC50: > 25 µM
[1]; [3]
  IC50: > 25 µM
[1]; [4]
  IC50: > 25 µM
HIV RT polymerase
  IC50: > 25 µM
HIV RT polymerase; read-out: RT Pol IC50, Table 4
  IC50: > 25 µM
HIV integrase
  IC50: > 100 µM

## O=C(O)c1cn(Cc2ccncc2)cc(O)c1=O [10n, 5-Hydroxy-4-oxo-1-(pyridin-4-ylmethyl)-1,4-dihydropyridine-3-carboxylic acid]
[1]; [2]
  IC50: > 25 µM
[1]; [3]
  IC50: > 25 µM
[1]; [4]
  IC50: > 25 µM
HIV RT polymerase
  IC50: > 25 µM
HIV RT polymerase; read-out: RT Pol IC50, Table 4
  IC50: > 25 µM
HIV integrase
  IC50: > 100 µM

## CS(=O)(=O)c1ccc(Cn2cc(O)c(=O)c(C(=O)O)c2)cc1 [10o, 5-Hydroxy-1-(4-(methylsulfonyl)benzyl)-4-oxo-1,4-dihydropyridine-3-carboxylic acid]
[1]; [2]
  IC50: > 25 µM
[1]; [3]
  IC50: > 25 µM
[1]; [4]
  IC50: > 25 µM
HIV RT polymerase
  IC50: > 25 µM
HIV RT polymerase; read-out: RT Pol IC50, Table 4
  IC50: > 25 µM

## O=C(O)c1ccc(Cn2cc(O)c(=O)c(C(=O)O)c2)cc1 [10p, 1-(4-Carboxybenzyl)-5-hydroxy-4-oxo-1,4-dihydropyridine-3-carboxylic acid]
[1]; [2]
  IC50: > 25 µM
[1]; [3]
  IC50: > 25 µM
[1]; [4]
  IC50: > 25 µM
HIV RT polymerase
  IC50: > 25 µM
HIV RT polymerase; read-out: RT Pol IC50, Table 4
  IC50: > 25 µM

## NS(=O)(=O)c1ccc(-c2ccc(Cn3cc(O)c(=O)c(C(=O)O)c3)cc2)cc1 [10y, 5-Hydroxy-4-oxo-1-((4'-sulfamoyl-[1,1'-biphenyl]-4-yl)methyl)-1,4-dihydropyridine-3-carboxylic acid]
HIV integrase
  IC50: > 100 µM

## CCOC(=O)c1cn(Cc2ccc(F)cc2)cc(O)c1=O [compound 18, Ethyl-1-(4-fluorobenzyl)-5-hydroxy-4-oxo-1,4-dihydropyridine-3-carboxylate]
[1]; [2]
  IC50: > 25 µM
[1]; [3]
  IC50: > 25 µM
[1]; [4]
  IC50: > 25 µM
HIV RT polymerase
  IC50: > 25 µM
HIV RT polymerase; read-out: RT Pol IC50, Table 4
  IC50: > 25 µM
HIV integrase
  IC50: > 100 µM

## NC(=O)c1cn(Cc2ccc(F)cc2)cc(O)c1=O [compound 20, 1-(4-Fluorobenzyl)-5-hydroxy-4-oxo-1,4-dihydropyridine-3-carboxamide]
[1]; [2]
  IC50: > 25 µM
[1]; [3]
  IC50: > 25 µM
HIV RT polymerase
  IC50: > 25 µM
HIV RT polymerase; read-out: RT Pol IC50, Table 4
  IC50: > 25 µM
